Experiment [1] has as its system APAP-induced liver injury in MLKL−/− C57BL/6 mice. Put plainly: APAP-induced liver injury in MLKL knockout mice. The format is in vivo, mouse. Particulars: 15 mg/kg, 400 mg/kg APAP, 24 h. As for the experimental part: For APAP-induced liver injury, male BALB/c mice aged 6–8 weeks (Central Lab Animal Inc., S. Korea) and male MLKL^–/– C57BL/6 mice aged 6–8 weeks (Cyagen, Santa Clara, CA, USA) were administered acetaminophen (APAP; 400–500 mg/kg, 103-90-2, Sigma-Aldrich) by i.p. injection to induce liver injury in the presence or absence of APO after 12 h of fasting. After 24 h, the mice were sacrificed to obtain liver tissues for further analysis.
For liver tissue preparation, each liver was perfused with DPBS and then fixed in 4% paraformaldehyde (PFA; PC2031-050-00, Biosesang, S. Korea) before embedding in paraffin. Sections were stained with H&E, and necrotic areas were quantified using ImageJ by calculating the proportion of pale or unstained regions relative to the total tissue area. Mouse liver sections were subjected to IHC staining to assess distinct forms of cell death: an anti-p-MLKL antibody (MA5-32752, Thermo Fisher Scientific) to evaluate p-MLKL localization (necroptosis), a TUNEL assay kit (4810-30-K, R&D Systems) for apoptosis, and an anti-4-HNE antibody (GTX01087, GeneTex) for ferroptosis.
Fig. S6 APO reduces liver damage in MLKL^–/– mice. […] Necrotic areas were quantified as the proportion of unstained regions relative to the total tissue area. […] (D) Serum AST and ALT levels were evaluated to assess liver injury after APAP injection. […]

Another experiment has as its system THP-1 cells. The experiment is described as follows: Released HMGB1 in supernatant of TBZ-treated cells. It counts as cell-based, human. Particulars: TBZ-treated THP-1, different concentrations, 8 h. As for the experimental part:
TBZ-treated cell supernatants were harvested and centrifuged using Amicon ultra centrifugal filters 10 kDa (UFC501096, Millipore, Billerica, MA, USA) at 4000×g for 1 h. The concentrated supernatants were analyzed using SDS-PAGE to assess released HMGB1 levels.

The next experiment has as its system THP-1-HMGB1-Lucia cells. The experiment is described as follows: TBZ-induced necroptosis screening by HMGB1-luciferase release. It counts as cell-based, human. The conditions noted are these: Homo sapiens; 20 μM compound with TBZ, 8 h; TBZ alone = 100, DPBS = 0; read-out: % Inhibition (luciferase activity relative to TBZ-treated supernatant). The procedure: To identify potential inhibitors of the necroptosis pathway targeting MLKL or the process of p-MLKL pore formation on the membrane, we screened a library of 2150 compounds, including FDA-approved drugs and those in phase 1–3 clinical trials, using THP-1-HMGB1-Lucia™ cells expressing the HMGB1-luciferase fusion protein. The cells were treated with a necroptosis-inducing mixture containing TNF-α, BV6, and Z-VAD-FMK (TBZ) in addition to the compound library (Fig. 1A). The supernatants were harvested to measure luciferase activities for necroptosis. The luciferase activities of cell supernatants treated with TBZ alone were considered as the maximum release (100%) of HMGB1-luciferase. NEC-1, a known RIP1 inhibitor used in both humans and mice, was used as a positive control. […] Next, we performed a propidium iodide (PI) uptake assay to exclude cytotoxic compounds using THP-1 cells. Then, we selected candidate molecules that were arbitrarily less than 30% of those treated with TBZ. […] Next, the inhibition levels of p-MLKL were tested to select MLKL-targeting molecules (Figs. 1C and S1A). Compounds that reduced p-MLKL levels to less than 30% of TBZ-treated controls were considered as potential inhibitors of MLKL phosphorylation. Conversely, compounds that maintained p-MLKL levels above 70% were selected because they are presumed to prevent the formation of pores in the plasma membrane by interfering with oligomerization.
A clinical chemical library containing 2150 items (Korea Chemical Bank, South Korea), under phase 1–3 clinical trials, including FDA-approved drugs, was used to screen for necroptosis inhibitors. Each chemical was dissolved in DMSO and diluted to 20 μM in DPBS for treatment.
THP-1-HMGB1-Lucia^TM cells were pretreated with the pan-caspase inhibitor Z-VAD-FMK (50 μM, tlrl-vad, InvivoGen) and each chemical for 1 h, and followed by TNF-α (100 ng/mL, TNF0501, NKMAXBio, Seongnam, S. Korea) and Smac mimetic BV6 (10 μM, B1332-5, Biovision, Santa Clara, CA, USA), termed TBZ mixture, were added for necroptosis screening. The RIP1 inhibitor, NEC-1 (1846, Biovision), and MLKL inhibitor, NSA (432531-71-0, Sigma-Aldrich, St. Louis, MO, USA), were used as controls. The cell supernatant was harvested to measure HMGB1 levels using a luciferase assay kit (E1500, Promega, Madison, WI, USA) by a luminometer (Centro XS3 LB 960, Berthold Technologies, Bad Wildbad, Germany). The inhibition of necroptosis (%) was calculated as: (sample-treated data – medium-only data) × 100/(TBZ-treated data – medium-only data). APO [STK088477, (6aS)-6-methyl-5,6,6a,7-tetrahydro-4H-dibenzo[de,g]quinoline-10,11-diol, Vitas-M Laboratory, Hong Kong] was stored at −70 °C after aliquoting with DMSO. APO was used after dilution in DPBS. APO is susceptible to auto-oxidation in solution in the presence of light and air. DPBS containing 5 mM DTT was used for Re-APO. Ox-APO was prepared by incubating APO in DPBS at 25 °C for 24 h in the presence of light and air, followed by removal of any precipitate by filtration through 0.2 μm.

Here are results for two molecules from publication PMC12518639, “Apomorphine is a novel necroptosis inhibitor targeting mixed lineage kinase domain-like protein oligomerization” (Cell Death Discovery, 2025).

With `CN1CCc2cccc3c4c(cc1c23)C=CC(=O)C4=O` [Ox-APO], the “hepatic damage (H&E, ALT, AST, TUNEL, 4-HNE)” value in experiment [1] is “significantly reduced”.

For the molecule `CN1CCc2cccc3c2[C@@H]1Cc1ccc(O)c(O)c1-3` [S62, (6aS)-6-methyl-5,6,6a,7-tetrahydro-4H-dibenzo[de,g]quinoline-10,11-diol], the HMGB1 release entry in the experiment on THP-1 cells was “dose-dependently decreased”. The activity at 20 µM in the experiment on THP-1-HMGB1-Lucia cells was determined as 7.1%.
